Test results published in article PMC6597546, “Identification of a potent benzoxaborole drug candidate for treating cryptosporidiosis” (Nature Communications, 2019).
Several values for one entry are separate records, joined by “and”; a condition that tells them apart may be missing. Identical values can stand only once. Like-named read-outs stand apart in the source and are kept apart here.

Columns and labels:
[1] = test system: C. parvum (University of Arizona Iowa isolate); format: in vivo, C57BL/6 IFN-γ−/− mice
Description: Interferon gamma (IFN-γ) knockout mice were used to model acute Cryptosporidium infection. All IFN-γ knockout mouse studies were performed in compliance with animal care guidelines and were approved by the Explora BioLabs (San Diego, CA) Institutional Animal Care and Use Committee. Four-week-old female C57BL/6 IFN-γ^−/− mice with normal flora were purchased from The Jackson laboratory and acclimated for 3 days prior to infection by oral gavage with ∼10^6 C. parvum Iowa isolate oocysts (Sterling Laboratory, University of Arizona) suspended in sterile distilled water. At the indicated times following infection, mice were treated with compound vehicle alone, clofazimine (positive control), or once daily AN7973 at the indicated doses. Fecal parasite shedding was measured by isolating oocysts using sucrose gradient centrifugation. Sheather’s sucrose solution was freshly prepared by dissolving 156.25 g sucrose and 2.5 mL phenol in 100 mL water. Two sucrose solutions were prepared: (A) specific gravity of 1.103 (33% Sheather’s and 0.1% Tween 80 in PBS) and (B) specific gravity of 1.064 (20% Sheather’s and 0.1% Tween 80 in PBS). In a 2 mL microfuge tube, a gradient was prepared by laying 0.75 mL of solution A, then carefully laying 0.75 mL of solution B, slowly as to prevent mixing of the two layers. Fecal pellets were removed from storage, and homogenized by vortexing and pipetting. 0.2 mL fecal homogenate was overlaid on top of gradient in each microfuge tube. Oocysts were floated from feces by centrifugation at 1000 × g for 20 min and collected with a pipet tip from the 1.064/1.103 specific gravity interface between solutions A and B. Oocysts were rinsed once in cold PBS, pelleted by centrifugation at 15,000 × g for 10 min, and resuspended in PBS. Isolated oocysts were then stained with a fluorescein isothiocyanate-conjugated mouse anti-Cryptosporidium antibody (Bio-Rad catalog# 2402-3007 F; 0.25 µg per sample) and quantified using a Guava EasyCyte flow cytometer and CytoSoft data acquisition software (version 5.3; Guava Technologies, Inc.). Oocysts per milliliter of sample were normalized to counts per milligram of feces.

[2] = test system: C. parvum (Bunch Grass Farms Iowa isolate); design: method as in PMID 29339392; conditions: cited from earlier work

For `CC(C)/N=c1\cc2n(-c3ccc(Cl)cc3)c3ccccc3nc-2cc1Nc1ccc(Cl)cc1` [Clofazimine, clofazimine, reference compound], the “fecal oocyst shedding, individual mice” value ([1]; 10 mg/kg QD from day 4, day p.i. 14) is listed as 15 (2×) and 18 and 16, the “fecal oocyst shedding, individual mice” value ([1]; 25 mg/kg QD from day 4, day p.i. 8) is listed as 10 and 8 (2×) and 9 and the “efficacy against Cryptosporidium in the NSG mouse” value [2] is listed as “lacks efficacy”.
